Source: ChEMBL document CHEMBL1134378 (J Med Chem, 2001)

Legend:
[1] = Inhibitory activity against type A neuraminidase (N2); set-up: species or system unidentified influenza virus
[2] = Inhibitory activity against type A neuraminidase (N9); set-up: species or system unidentified influenza virus

C=C(C)NC(C(CC)CC)[C@@H]1[C@H](O)[C@@H](C(=O)O)C[C@H]1N=C(N)N (some centres not stated)
Log IC50 [1]: -10 | Log IC50 [2]: -10
